From publication PMC6968641, “N-monoarylacetothioureas as potent urease inhibitors: synthesis, SAR, and biological evaluation” (Journal of Enzyme Inhibition and Medicinal Chemistry, 2019)
Converted amounts (≈) assume the structure as drawn. Read-outs that look alike come from different tables or passages of the source.

Experiments:
[1] = target: T1, H. pylori urease (Helicobacter pylori, UniProt P69996); assay: Urease inhibition, extracted H. pylori urease (indophenol method); type: biochemical; details: for IC50: extracted H. pylori urease
T1 construct: endogenous in cells; host or cells: H. pylori ATCC 43504; sonicated, supernatant desalted on Sephadex G-25 (crude extract)
T1 sequence (P14916 whole entry): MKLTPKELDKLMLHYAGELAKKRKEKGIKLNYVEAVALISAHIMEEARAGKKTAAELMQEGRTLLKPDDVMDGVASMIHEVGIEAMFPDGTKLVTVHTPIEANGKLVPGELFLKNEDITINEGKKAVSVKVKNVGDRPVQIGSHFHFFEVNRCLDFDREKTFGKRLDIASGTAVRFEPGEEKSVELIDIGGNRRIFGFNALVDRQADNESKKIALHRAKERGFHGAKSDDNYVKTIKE
T1 sequence (P69996 whole entry): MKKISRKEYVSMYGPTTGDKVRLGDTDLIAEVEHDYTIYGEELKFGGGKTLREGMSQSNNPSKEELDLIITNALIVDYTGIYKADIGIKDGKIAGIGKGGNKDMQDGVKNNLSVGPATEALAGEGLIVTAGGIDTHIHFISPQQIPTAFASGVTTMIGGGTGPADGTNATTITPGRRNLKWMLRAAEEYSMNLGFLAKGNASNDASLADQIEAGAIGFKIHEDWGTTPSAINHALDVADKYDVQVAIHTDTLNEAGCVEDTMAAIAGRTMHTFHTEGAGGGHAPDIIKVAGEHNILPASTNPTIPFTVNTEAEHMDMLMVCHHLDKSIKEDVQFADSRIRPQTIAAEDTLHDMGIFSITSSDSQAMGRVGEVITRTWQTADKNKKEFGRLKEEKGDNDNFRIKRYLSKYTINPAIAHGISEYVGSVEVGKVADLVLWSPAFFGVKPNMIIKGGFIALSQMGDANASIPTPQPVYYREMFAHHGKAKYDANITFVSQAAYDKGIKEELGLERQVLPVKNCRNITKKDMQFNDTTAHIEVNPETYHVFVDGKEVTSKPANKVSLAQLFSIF
Description: For urease inhibition assays, 50 mL broth cultures (2.0 × 10^8 CFU/mL) were centrifuged (5000×g, 4 °C) to collect the bacteria, and after washing twice with phosphate-buffered saline (pH 7.4), the H. pylori precipitation was stored at –80 °C for 8 h, and then was returned to room temperature, and after addition of 3 mL of distilled water and protease inhibitors, sonication was performed for 60 s. Following centrifugation (15,000×g, 4 °C), the supernatant was desalted through Sephadex G-25 column (PD-10 columns, Amersham Pharmacia Biotech, Uppsala, Sweden). The resultant crude urease solution was added to an equal volume of glycerol and stored at 4 °C until use in the experiment.
Urease activity was determined in the 96-well assay plate by measuring ammonia production using the indophenol method as described by Weatherburn[20]. Briefly, to each well, 50 µL of urea (10 mM) in phosphate buffer solution was added in a mixture of 25 µL (10 U) of H. pylori urease and 25 µL of the test compound, which was incubated at 37 °C for 0.5 h. Fifty µL of phenol reagent (containing 127 mM phenol and 0.168 mM sodium nitroprusside) and 50 µL of alkali reagent (containing 125 mM NaOH and 0.168 mM NaOCl) were added in turn. The resulted mixture was incubated at 37 °C for another 0.5 h for colouration developing. The increasing absorbance was measured at 630 nm after 50 min using a microplate reader (Molecular Devices, San Jose, CA). Percentage inhibitions were calculated from the following formula (Equation (1)). Experiments were performed in triplicate and AHA was used as reference drug, and the IC50 value was determined as the concentration of compound that give 50% inhibition of maximal activity. As for the urease assay of intact cells, 25 µL (10 U) of H. pylori urease was replaced by 25 µL of cell suspension (4.0 × 10^7 CFU/mL).

[2] = target: T2, urease in intact H. pylori cell (Helicobacter pylori, UniProt P69996); assay: Urease inhibition in intact H. pylori cell (indophenol method); type: cell-based
T2 construct: H. pylori urease was replaced by 25 µL of cell suspension (4.0 × 10^7 CFU/mL); endogenous in cells; host or cells: intact H. pylori ATCC 43504 cells
T2 sequence (P69996 whole entry): as above
T2 sequence (P14916 whole entry, further chain): as the sequence (P14916 whole entry) above

[3] = tested on: H. pylori; assay: Minimum inhibitory concentration, broth microdilution (CLSI); type: cell-based, Helicobacter pylori (ATCC 43504)
Description: H. pylori (ATCC 43504; […] The minimum inhibitory concentration (MIC) values were determined using the broth microdilution protocol according to the methods of the Clinical and Laboratory Standards Institute (CLSI)[21].

[4] = Cytotoxicity MTT assay, L-02; type: cell-based; details: human, L-02 cells (normal hepatic cell line), 25 μg/mL
Description: (§1) The stock solutions of the selected compounds (250 µg/mL, in PBS) were prepared in medium. L-02 cells and P69 cells were grown in medium (90% RPMI-1640 medium, 10% foetal bovine serum, 1% penicillin/streptomycin) and maintained at 37 °C in a humidified atmosphere containing 5% CO2, respectively. Cells were seeded in 96-well cell culture plates. On the day when seeding, the cells were exposed to 250 µg/mL of compounds and further cultured for 72 h at 37 °C. Cell proliferation was then determined using the thiazolyl blue tetrazolium bromide (MTT) assay.

[5] = target: T3, Jack bean urease (Canavalia ensiformis, UniProt P07374); assay: Enzyme kinetic study (indophenol method); type: biochemical; details: for Type of inhibition: Jack bean urease; for Ki': dissociation constant of urease-urea-inhibitor complex
T3 construct: purchased
T3 sequence (P07374 whole entry, looked up): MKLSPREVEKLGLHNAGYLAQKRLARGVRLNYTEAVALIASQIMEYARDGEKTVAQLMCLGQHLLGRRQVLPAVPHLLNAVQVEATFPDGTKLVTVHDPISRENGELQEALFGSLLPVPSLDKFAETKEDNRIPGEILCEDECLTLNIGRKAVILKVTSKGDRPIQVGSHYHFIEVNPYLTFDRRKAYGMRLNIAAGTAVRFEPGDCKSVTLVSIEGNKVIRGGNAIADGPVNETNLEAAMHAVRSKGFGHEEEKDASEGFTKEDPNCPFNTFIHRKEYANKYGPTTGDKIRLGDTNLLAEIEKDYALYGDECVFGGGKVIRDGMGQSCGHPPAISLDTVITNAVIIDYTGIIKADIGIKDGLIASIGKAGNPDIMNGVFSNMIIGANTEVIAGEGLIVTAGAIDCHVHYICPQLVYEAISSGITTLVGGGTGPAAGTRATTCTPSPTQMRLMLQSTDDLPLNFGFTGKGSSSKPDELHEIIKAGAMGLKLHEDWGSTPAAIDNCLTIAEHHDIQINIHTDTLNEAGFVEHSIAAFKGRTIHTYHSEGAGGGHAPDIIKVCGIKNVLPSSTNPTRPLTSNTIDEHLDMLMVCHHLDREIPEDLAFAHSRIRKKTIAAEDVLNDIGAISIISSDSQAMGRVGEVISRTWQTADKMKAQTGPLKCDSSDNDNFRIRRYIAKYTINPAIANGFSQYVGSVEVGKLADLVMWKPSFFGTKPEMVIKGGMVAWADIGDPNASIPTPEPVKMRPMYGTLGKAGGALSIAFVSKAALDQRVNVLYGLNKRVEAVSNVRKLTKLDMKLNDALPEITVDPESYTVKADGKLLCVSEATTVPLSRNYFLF
Description: Based on the indophenol method, the velocity of ammonia production (V) was measured in the presence of concentration gradients of urea ([S]) for every specific concentration of selected compounds ([I]). Nonlinear fitting curves to data of V and [S] were used to determine the type of enzyme inhibition based on the general kinetics equation (Equation (1)). Subsequently, the resulted fitting constants ( Km/Vmax(1+[I]/Ki) or 1/Vmax(1+[I]/Ki′) ) and [I] were linearly fitted to give kinetic parameters Ki and Ki', respectively. The experimental assay was performed against a pure urease (Jack bean urease) for the consideration of precision. (1) V=Vmax[S]/Km(1+[I]/Ki)+(1+[I]/K^′i)[S]
Mazzei et al. confirmed that urease shared the mechanism of catalysis and inhibition regardless of the biological sources[27]^,[28]. For excluding the possible interference, a pure urease (Jack bean urease) was therefore used for kinetic assays. As an example, Figure 2 describes the preincubation-time dependence of urease inhibition by b19. The suppressed urease activity maintained at relatively constant values with the increasing preincubation time under different concentrations of b19, resulting in nearly equal IC50 values.
Similarly, kinetic parameters ( Ki and Ki' ) and inhibition types of other compounds were also determined and are shown in Table 3.

[6] = Cytotoxicity MTT assay, P69; type: cell-based; details: human, P69 cells (normal prostate cell line), 25 μg/mL
Description: as §1

[7] = target: T3, Jack bean urease; assay: Ligand affinity by surface plasmon resonance (SPR); type: binding; details: for kon: pH 7.4; for koff: immobilised urease, PBS pH 7.4
Description: The binding kinetics of selected compounds were assayed via surface plasmon resonance (SPR) using an OPEN SPR instrument (Nicoya Lifesciences, Kitchener, Canada). First, urease dissolved (50 µg/mL) in PBS buffer (1 mM KH2PO4, 155 mM NaCl, 3 mM Na2HPO4-12H2O, pH 7.4), was immobilised to a CM5 chip using a standard amine coupling procedure. Then, SPR measurements were carried out in PBS, and stock solutions were diluted in the same buffer. Data were collected with OpenSPR control software. Experiments were performed by monitoring the refractive index changes as a function of time under constant flow rate of 20 µL/min. The relative amount of inhibitor bound to the urease was determined by measuring the net increase in refractive index over time compared to control running buffer. There is an inline subtraction of reference surface during the run. This change is usually reported in response units (RU). Sensograms were processed and analysed using TraceDrawer software. The binding curves were fit to determine the equilibrium dissociation constant (KD).
In the present paper, the pure Jack bean urease from commercial was used for this assay because of non-availability of pure H. pylori urease. […] For efficient and tight ligand binding, the rate constant koff is of particular interest, because koff has a potential to differentiate indistinguishable compounds with similar affinities.

[8] = Helicobacter pylori, pH=4.0, read-out: MIC pH=4.0
[9] = Helicobacter pylori, pH=7.0, read-out: MIC pH=7.0

SMILES	IC50 ([1]; IC50 Extracted urease)	viability at 72 h, 25 µg/mL [4]	melting point	IC50 [2]	MIC [3, 8]	MIC [3, 9]	Ki [5]	Type of inhibition [5]	Ki' [5]	viability at 72 h, 25 µg/mL [6]	Kd [7]	kon [7]	koff ([7]; pH 7.4, SPR)	further results
CC(=O)NO [AHA, acetohydroxamic acid, reference compound]														IC50 ([1]; read-out: IC50 Extracted urease): 27.2 ± 0.7 µM; IC50 ([2]; intact H. pylori cell suspension, read-out: IC50 Urease in intact cell): 171 ± 9 µM; MIC ([3]; pH=4.0, read-out: MIC pH=4.0): 16.0 µM (≈ 1.2 µg/mL); MIC ([3]; pH=7.0, read-out: MIC pH=7.0): >64.0 µM
NC(=S)NC(=O)Cc1cccc(O)c1 [b4]	16.3 ± 0.3 µM	93.7%	160.3 to 161.5 °C	108 ± 6.1 µM	64 µM (≈ 13.5 µg/mL)	> 64 µM	4.34 µM	Reversible	8.52 µM	88.1%	0.644 ± 0.0092 µM	60800 M⁻¹ s⁻¹	0.0389 s⁻¹	
NC(=S)NC(=O)Cc1ccc(O)cc1 [b8]	9.93 ± 0.9 µM	92.1%	177.1 to 178.3 °C	52.5 ± 3.9 µM	8 µM (≈ 1.68 µg/mL)	64 µM (≈ 13.5 µg/mL)	2.54 µM	Reversible	11.3 µM	94.6%	0.311 ± 0.0103 µM	9.38e+06 M⁻¹ s⁻¹	0.00292 s⁻¹	
COc1ccc(CC(=O)NC(N)=S)cc1OC [b10]	24.2 ± 0.6 µM	108%	146.3 to 147.6 °C	207 ± 16 µM						95.3%				
COc1ccc(CC(=O)NC(N)=S)cc1 [b11]	16.3 ± 1.2 µM	97%	143.5 to 144.7 °C	98.3 ± 5.9 µM	32 µM (≈ 7.18 µg/mL)	> 64 µM	3.94 µM	Reversible	12.7 µM	87.5%	0.667 ± 0.0137 µM	572000 M⁻¹ s⁻¹	0.0381 s⁻¹	
NC(=S)NC(=O)Cc1ccc(Br)cc1 [b12]	22.9 ± 0.4 µM	91.5%	174.9 to 176.2 °C	189 ± 18 µM						89.4%				
Cc1ccc(CC(=O)NC(N)=S)cc1 [b16]	5.2 ± 0.32 µM	114%	171.2 to 172.5 °C	35.7 ± 1.7 µM	2 µM (≈ 0.417 µg/mL)	64 µM (≈ 13.3 µg/mL)	1.28 µM	Reversible	2.84 µM	89.9%	0.162 ± 0.0038 µM	501000 M⁻¹ s⁻¹	0.081 s⁻¹	
NC(=S)NC(=O)Cc1ccc(Cl)cc1 [b19]	0.16 ± 0.05 µM	> 93%	184.1 to 186.6 °C	3.86 ± 0.1 µM	0.5 µM (≈ 0.114 µg/mL)	32 µM (≈ 7.32 µg/mL)	0.04 µM	Reversible	0.16 µM	> 93%	0.0045 ± 0.00016 µM	3.82e+06 M⁻¹ s⁻¹	0.0016 s⁻¹	fold more potent than AHA, extracted urease ([1]; ratio of IC50 values vs AHA): 170 fold; fold more potent than AHA, urease in intact cell ([2]; ratio of IC50 values vs AHA): 44 fold; preincubation-time dependence of urease inhibition ([5]; different preincubation times and concentrations): time-independent; inhibition mechanism ([5]; from Ki and Ki'): mixed competitive; koff ([7]; SPR): 1.73 × 10^–3 ± 2.57 × 10^–5 s^–1
NC(=S)NC(=O)Cc1ccc(F)cc1 [b23]	14.6 ± 1 µM	96.1%	165.4 to 166.5 °C	93.6 ± 5.5 µM	8 µM (≈ 1.7 µg/mL)	> 64 µM	3.53 µM	Reversible	9.67 µM	97.6%	0.569 ± 0.0216 µM	54300 M⁻¹ s⁻¹	0.0309 s⁻¹	
NC(=S)NC(=O)Cc1ccc(O)c(O)c1 [b29]	18.4 ± 1.6 µM		153.5 to 155 °C	143 ± 6 µM			8.21 µM	Reversible	21.5 µM		0.783 ± 0.0213 µM	19800 M⁻¹ s⁻¹	0.0155 s⁻¹	
